In patent publication US9850283B2, “Macrocyclic inhibitors of the PD-1/PD-L1 and CD80(B7-1)/PD-L1 protein/protein interactions” (BRISTOL-MYERS SQUIBB COMPANY, priority 2013, dated 2017):
Where two headings read alike, the source gives them in different places. Positions of bridges follow the written chain, without caps; N, C: chain ends. Non-standard residues stand in square brackets, D forms with d. Residues, ends and D or L forms follow the SMILES beside them. ξ: configuration not given here. Phe(4-CH2NH2) = NCc1ccc(C[C@H](N)C(=O)O)cc1; Phe(4-F) = N[C@@H](Cc1ccc(F)cc1)C(=O)O; Bta = N[C@@H](Cc1csc2ccccc12)C(=O)O; Hyp = O=C(O)[C@@H]1C[C@@H](O)CN1; NMeF = CN[C@@H](Cc1ccccc1)C(=O)O; NMeNle = CCCC[C@H](NC)C(=O)O; NMeM = CN[C@@H](CCSC)C(=O)O; NMeA = CN[C@@H](C)C(=O)O; Dab = NCC[C@H](N)C(=O)O; Dap = NC[C@H](N)C(=O)O; ξC = NC(CS)C(=O)O; Sar = CNCC(=O)O

Columns and labels:
[1] = target: T1, Human PD-L1/PD-1 (Homo sapiens, UniProt Q9NZQ7); experiment: HTRF PD-1-Ig/PD-L1-His binding assay (human PD-L1); conditions: cluster symbol; read-out: HTRF IC50 cluster
T1 construct: made in house; host or cells: HEK293T
Procedure, shortened: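 Interaction of Fc-tagged soluble PD-1 with His-tagged soluble PD-L1 is monitored by time-resolved FRET. Donor is europium cryptate anti-Ig (1 nM final) and acceptor is APC anti-His (20 nM final). Assay buffer is dPBS with 0.1% BSA and 0.05% Tween-20.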

[2] = target: T2, LK35.2-hPD-L1 cells / PE-labeled PD-1-Ig (Homo sapiens, UniProt Q9NZQ7); experiment: LK35.2-hPD-L1 cell binding high-content screening assay; type: cell-based; conditions: cluster symbol, read-out: CBA IC50 cluster
T2 construct: expressed in transfected cells; host or cells: LK35.2 mouse B cell line
Procedure, shortened: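 Using overnight-cultured LK35.2-hPD-L1 mouse B cells, compound was co-incubated with phycoerythrin-tagged human PD-1-Ig (final 1 nM) at 37 °C for one hour. Unbound label was removed by triple dPBS washing prior to high-content image acquisition and analysis.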

[3] = cell line of CBA not given (LK35.2-hPD-L1 or 293T-hPD-L1)
[4] = cell binding assay, cell line not given

T2 sequence (Q9NZQ7 19-290): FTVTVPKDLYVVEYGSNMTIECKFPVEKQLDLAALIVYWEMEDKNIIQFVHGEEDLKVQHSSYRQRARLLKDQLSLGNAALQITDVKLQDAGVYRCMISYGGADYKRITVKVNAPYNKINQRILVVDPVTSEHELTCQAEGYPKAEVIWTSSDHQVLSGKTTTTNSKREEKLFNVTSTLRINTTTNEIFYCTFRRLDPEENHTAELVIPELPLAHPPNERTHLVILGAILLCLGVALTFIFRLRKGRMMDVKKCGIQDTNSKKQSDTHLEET
T1 sequence (Q9NZQ7 with tags, fused parts or gaps): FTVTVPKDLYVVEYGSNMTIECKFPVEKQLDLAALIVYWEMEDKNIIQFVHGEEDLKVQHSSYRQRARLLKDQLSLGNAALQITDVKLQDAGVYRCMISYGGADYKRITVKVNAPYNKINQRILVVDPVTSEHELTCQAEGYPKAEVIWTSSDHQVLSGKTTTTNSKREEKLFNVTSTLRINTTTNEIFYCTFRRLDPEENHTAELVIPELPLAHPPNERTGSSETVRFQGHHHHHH

Row | IC50 [1] [nM] | IC50 [2, 3] [nM] | IC50 [2, 4] [nM] | Structure (SMILES)
1 | 0.385 to 6.74 | 0.158 to 4.71 | – | CCCC[C@H]1C(=O)N(C)[C@@H](CCCC)C(=O)N[C@@H](C)C(=O)N[C@H](C(=O)NCC(N)=O)CSCC(=O)N[C@@H](Cc2ccc(O)cc2)C(=O)N(C)[C@@H](C)C(=O)N[C@@H](CC(N)=O)C(=O)N2CCC[C@H]2C(=O)N[C@@H](CN)C(=O)N[C@@H](CCC(=O)O)C(=O)N2C[C@H](O)C[C@H]2C(=O)N[C@@H](Cc2c[nH]c3ccccc23)C(=O)N[C@@H](CO)C(=O)N[C@@H](Cc2c[nH]c3ccccc23)C(=O)N1C [Example 1171] ({CH2CO}-Y[NMeA]NP[Dap]E[Hyp]WSW[NMeNle][NMeNle]ACG-NH2; thioether N-14)
2 | 6.76 to 30.3 | – | 0.158 to 4.71 | CCCC[C@H]1C(=O)N2CCC[C@@H]2C(=O)N[C@@H](CC(=O)O)C(=O)N[C@@H](C(C)C)C(=O)N(C)[C@@H](Cc2ccccc2)C(=O)N[C@@H](Cc2ccc(O)cc2)C(=O)N2CCC[C@@H]2C(=O)N[C@@H](Cc2c[nH]c3ccccc23)C(=O)N[C@@H](Cc2ccc(O)cc2)C(=O)N[C@@H](CC(C)C)C(=O)N[C@H](C(=O)NCC(N)=O)CSCC(=O)N[C@@H](Cc2ccccc2)C(=O)N(C)[C@@H](Cc2ccccc2)C(=O)N1C [Example 3574] (HELM PEPTIDE1{[O=C(C[*:3])[*:2]].F.[meF].[CCCC[C@@H](C(=O)[*:2])N(C)[*:1]].[dP].D.V.[meF].Y.[dP].W.Y.L.C.G.[am]}$PEPTIDE1,PEPTIDE1,1:R3-14:R3$$$V2.0)
3 | 0.385 to 6.74 | – | 0.158 to 4.71 | CCCC[C@H]1C(=O)N(C)[C@@H](CCSC)C(=O)N[C@@H](CCCNC(=N)N)C(=O)NC(C(=O)NCC(N)=O)CSCC(=O)N[C@@H](Cc2ccc(O)cc2)C(=O)N(C)[C@@H](C)C(=O)N[C@@H](CC(N)=O)C(=O)N2CCC[C@H]2C(=O)N[C@@H](Cc2cnc[nH]2)C(=O)N[C@@H](CC(C)C)C(=O)N2C[C@H](O)C[C@H]2C(=O)N[C@@H](Cc2c[nH]c3ccccc23)C(=O)N[C@@H](CO)C(=O)N[C@@H](Cc2csc3ccccc23)C(=O)N1C (stereo partly shown) [Example 9023] ({CH2CO}-Y[NMeA]NPHL[Hyp]WS[Bta][NMeNle][NMeM]R[ξC]G-NH2; thioether N-14)
4 | 6.76 to 30.3 | – | 4.78 to 72.9 | CCCC[C@H]1C(=O)N(C)[C@@H](CCCC)C(=O)NCC(=O)N[C@H](C(=O)NCC(N)=O)CSCC(=O)N[C@@H](Cc2ccccc2)C(=O)N(C)[C@@H](C)C(=O)N[C@@H](CC(N)=O)C(=O)N2CCC[C@H]2C(=O)N[C@@H](Cc2cnc[nH]2)C(=O)N[C@@H](CC(C)C)C(=O)N(C)CC(=O)N[C@@H](Cc2c[nH]c3ccccc23)C(=O)N[C@@H](CO)C(=O)N[C@@H](Cc2c[nH]c3ccccc23)C(=O)N1C [Example 5015] ({CH2CO}-F[NMeA]NPHL[Sar]WSW[NMeNle][NMeNle]GCG-NH2; thioether N-14)
5 | 6.76 to 30.3 | – | 4.78 to 72.9 | CCCC[C@H]1C(=O)N(C)CC(=O)N[C@@H](CC(=O)O)C(=O)N[C@@H](C(C)C)C(=O)N(C)[C@@H](Cc2ccccc2)C(=O)N[C@@H](Cc2ccc(O)cc2)C(=O)N(C)CC(=O)N[C@@H](Cc2c[nH]c3ccccc23)C(=O)N[C@@H](Cc2ccc(O)cc2)C(=O)N[C@@H](Cc2ccc(CN)cc2)C(=O)N[C@H](C(=O)NCC(N)=O)CSCC(=O)N[C@@H](Cc2ccccc2)C(=O)N(C)[C@@H](Cc2ccccc2)C(=O)N1C [Example 3536] ({CH2CO}-F[NMeF][NMeNle][Sar]DV[NMeF]Y[Sar]WY[Phe(4-CH2NH2)]CG-NH2; thioether N-13)
6 | 0.385 to 6.74 | 4.78 to 72.9 | – | CCCC[C@H]1C(=O)N(C)[C@@H](CCCC)C(=O)N[C@@H](C)C(=O)N[C@H](C(N)=O)CSCC(=O)N[C@@H](Cc2ccc(O)cc2)C(=O)N(C)[C@@H](C)C(=O)N[C@@H](CCC(=O)O)C(=O)N2CCC[C@H]2C(=O)N[C@@H](CN)C(=O)N[C@@H](CC(C)C)C(=O)N2C[C@H](O)C[C@H]2C(=O)N[C@@H](Cc2c[nH]c3ccccc23)C(=O)N[C@@H](CO)C(=O)N[C@@H](Cc2c[nH]c3ccccc23)C(=O)N1C [Example 1172] ({CH2CO}-Y[NMeA]EP[Dap]L[Hyp]WSW[NMeNle][NMeNle]AC-NH2; thioether N-14)
7 | 0.385 to 6.74 | – | 0.158 to 4.71 | CCCC[C@H]1C(=O)N(C)[C@@H](CCCC)C(=O)N[C@@H](CC(C)C)C(=O)N[C@H](C(=O)NCC(N)=O)CSCC(=O)N[C@@H](Cc2ccc(O)cc2)C(=O)N(C)[C@@H](C)C(=O)N[C@@H](CC(N)=O)C(=O)N2CCC[C@H]2C(=O)N[C@@H](CN)C(=O)N[C@@H](CC(C)C)C(=O)N2CCC[C@H]2C(=O)N[C@@H](Cc2c[nH]c3ccccc23)C(=O)N[C@@H](CCN)C(=O)N[C@@H](Cc2c[nH]c3ccccc23)C(=O)N1C [Example 6040] ({CH2CO}-Y[NMeA]NP[Dap]LPW[Dab]W[NMeNle][NMeNle]LCG-NH2; thioether N-14)
8 | > 30.5 | > 74.3 | – | CCCC[C@H]1C(=O)N(C)[C@@H](CCCC)C(=O)N[C@@H](CCCNC(=N)N)C(=O)N[C@H](C(=O)NCC(N)=O)CSCC(=O)N[C@@H](Cc2ccccc2)C(=O)N(C)[C@@H](C)C(=O)N[C@H](C)C(=O)N2CCC[C@H]2C(=O)N[C@@H](Cc2cnc[nH]2)C(=O)N[C@@H](CC(C)C)C(=O)N(C)CC(=O)N[C@@H](Cc2c[nH]c3ccccc23)C(=O)N[C@@H](CO)C(=O)N[C@@H](Cc2c[nH]c3ccccc23)C(=O)N1C [Example 1081] ({CH2CO}-F[NMeA][dA]PHL[Sar]WSW[NMeNle][NMeNle]RCG-NH2; thioether N-14)
9 | > 30.5 | > 74.3 | – | CCCC[C@H]1C(=O)N(C)[C@@H](CCCC)C(=O)N[C@@H](CCCNC(=N)N)C(=O)N[C@H](C(=O)NCC(N)=O)CSCC(=O)N[C@@H](Cc2ccccc2)C(=O)N(C)[C@@H](C)C(=O)N[C@@H](CCC(N)=O)C(=O)N2CCC[C@H]2C(=O)N[C@@H](Cc2cnc[nH]2)C(=O)N[C@@H](CC(C)C)C(=O)N(C)CC(=O)N[C@@H](Cc2c[nH]c3ccccc23)C(=O)N[C@@H](CO)C(=O)N[C@@H](Cc2c[nH]c3ccccc23)C(=O)N1C [Example 1089] ({CH2CO}-F[NMeA]QPHL[Sar]WSW[NMeNle][NMeNle]RCG-NH2; thioether N-14)
10 | 6.76 to 30.3 | – | 4.78 to 72.9 | CCCC[C@H]1C(=O)N[C@@H](CCCNC(=N)N)C(=O)NC(C(=O)NCC(N)=O)CSCC(=O)N[C@@H](Cc2ccc(O)cc2)C(=O)N(C)[C@@H](C)C(=O)N[C@@H](CC(N)=O)C(=O)N2CCC[C@H]2C(=O)N[C@@H](Cc2cnc[nH]2)C(=O)N[C@@H](CO)C(=O)N2C[C@H](O)C[C@H]2C(=O)N[C@@H](Cc2c[nH]c3ccccc23)C(=O)N[C@@H](CO)C(=O)N[C@@H](Cc2csc3ccccc23)C(=O)N(C)[C@@H](CCSC)C(=O)N1C (stereo partly shown) [Example 9114] ({CH2CO}-Y[NMeA]NPHS[Hyp]WS[Bta][NMeM][NMeNle]R[ξC]G-NH2; thioether N-14)
11 | 0.385 to 6.74 | 4.78 to 72.9 | – | CCCC[C@H]1C(=O)N(C)CC(=O)N[C@@H](CC(=O)O)C(=O)N[C@@H](C(C)C)C(=O)N(C)[C@@H](Cc2ccccc2)C(=O)N[C@@H](Cc2ccc(O)cc2)C(=O)N(C)CC(=O)N[C@@H](Cc2c[nH]c3ccccc23)C(=O)N[C@@H](Cc2ccc(F)cc2)C(=O)N[C@@H](CC(C)C)C(=O)N[C@H](C(=O)NCC(N)=O)CSCC(=O)N[C@@H](Cc2ccccc2)C(=O)N(C)[C@@H](Cc2ccccc2)C(=O)N1C [Example 3076] ({CH2CO}-F[NMeF][NMeNle][Sar]DV[NMeF]Y[Sar]W[Phe(4-F)]LCG-NH2; thioether N-13)
